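Cultured in 96-well plates, cells were exposed to test compound for 48 hours across five concentrations. GI50: concentration for 50% inhibition of growth.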 Calls of active or inactive are those of the source. No stated cut-off is given here; in the data, active = GI50 up to about 1.1 µM and inactive = higher.

11 compounds from ChEMBL document CHEMBL1201862, “PubChem BioAssay data set” (2004) can be followed below.

Test systems include A498; CCRF-CEM; COLO 205; MDA-MB-231; MDA-N; Malme-3M; NCI-H226; NCI-H23; OVCAR-5; SF-268; SF-295; SK-MEL-5; SK-OV-3; SN12C; SNB-19; SNB-75; UACC-257; UO-31; HCC 2998.
Holding throughout (assay): inhibition of tumour cell growth, NCI panel, 48 h

Turning to `Cc1ccc(I)cc1N=C=S`, the GI50 with A498 was 21.2 µM (inactive); in the test with CCRF-CEM, 21.8 µM (inactive); in the test with COLO 205, 18.2 µM (inactive); with MDA-MB-231, 28.2 µM (inactive); in the test on MDA-N, 27.9 µM (inactive); with Malme-3M it was 25.1 µM (inactive). For the same compound, the GI50 is 18.3 µM (inactive) with NCI-H226; 19.9 µM (inactive) with NCI-H23; 23.4 µM (inactive) in the test with OVCAR-5; 27.6 µM (inactive) in the test on SF-268; 26.9 µM (inactive) in the test on SF-295; 16.5 µM (inactive) with SK-MEL-5. In addition, the GI50 was 37.3 µM (inactive) in the test on SK-OV-3; 20.7 µM (inactive) in the test on SN12C; 23.5 µM (inactive) in the test on SNB-19; 21.2 µM (inactive) in the test with SNB-75; 25 µM (inactive) with UACC-257; 17.3 µM (inactive) with UO-31.
Consider `O=C1Nc2ccccc2/C1=N\c1cccc2ncccc12`, for which the GI50 with A498 is > 100 µM (inactive); in the test on COLO 205 it was > 100 µM (inactive); with MDA-MB-231, > 100 µM (inactive); in the test on MDA-N it was 34.5 µM (inactive); in the test with Malme-3M it was > 100 µM (inactive); in the test on NCI-H226, > 100 µM (inactive). Further, the GI50 with NCI-H23 was 32.2 µM (inactive); with OVCAR-5, 63 µM (inactive); in the test with SF-268, 67.1 µM (inactive); with SF-295 it was 53.3 µM (inactive); in the test on SK-MEL-5, 67 µM (inactive); with SK-OV-3, 26.7 µM (inactive). Further, the GI50 with SN12C is > 100 µM (inactive); in the test with SNB-19, > 100 µM (inactive); in the test with SNB-75, 94.8 µM (inactive); with UACC-257, 41 µM (inactive); with UO-31, > 100 µM (inactive).
For `C=C1C(=O)OC2CCN3CC=C(COC(=O)C(C)(O)C4(CO4)C1C)C23` (stereo not given), the GI50 in the test with A498, with CCRF-CEM, with COLO 205, in the test on HCC 2998, in the test on MDA-MB-231 and in the test with MDA-N was > 100 µM (inactive) in each case. Moreover, the GI50 with Malme-3M, with NCI-H226, in the test on NCI-H23, in the test on SF-268, with SF-295 and with SK-MEL-5 was > 100 µM (inactive) each time. In addition, the GI50 in the test on SK-OV-3, in the test on SN12C, in the test on SNB-19, in the test with UACC-257 and with UO-31 was > 100 µM (inactive) throughout.
In the case of `O=C(O)/C=C/C=C/c1ccc2c(c1)OCO2` [PIPERIC ACID], the GI50 in the test on A498, with COLO 205, in the test on MDA-MB-231, in the test with MDA-N, in the test with Malme-3M and in the test with NCI-H226 was > 100 µM (inactive) throughout. The GI50 in the test on NCI-H23 was > 100 µM (inactive); in the test with OVCAR-5, > 100 µM (inactive); with SF-268, > 100 µM (inactive); in the test on SF-295, > 100 µM (inactive); in the test on SK-MEL-5, 94.4 µM (inactive); in the test with SK-OV-3 it was > 100 µM (inactive). Also, the GI50 was > 100 µM (inactive) in the test on SN12C; > 100 µM (inactive) in the test on SNB-19; 36.6 µM (inactive) with SNB-75; > 100 µM (inactive) with UACC-257; > 100 µM (inactive) with UO-31.
For the compound `C/C=C/C(C#N)(Cc1ccccc1)OP1(=O)OC(c2ccccc2)C(C)N1C` (stereo not given), the GI50 in the test on A498 was 69.3 µM (inactive); in the test on CCRF-CEM it was 19.4 µM (inactive); in the test with COLO 205 it was > 100 µM (inactive); in the test with HCC 2998, 81.3 µM (inactive); in the test on MDA-MB-231, > 100 µM (inactive); in the test with MDA-N, 88.1 µM (inactive). In addition, the GI50 in the test with Malme-3M is > 100 µM (inactive); in the test with NCI-H23, 87.3 µM (inactive); in the test on OVCAR-5 it was > 100 µM (inactive); in the test with SF-268, > 100 µM (inactive); in the test on SF-295, 49.1 µM (inactive); in the test with SK-MEL-5, 48.9 µM (inactive). Also, the GI50 with SK-OV-3 is > 100 µM (inactive); with SN12C it was 81.7 µM (inactive); in the test with SNB-19, 78.5 µM (inactive); with SNB-75, > 100 µM (inactive); with UACC-257 it was 65.8 µM (inactive); in the test on UO-31 it was 55.3 µM (inactive).
For `COc1ccc(N(C(=O)Nc2ccc(Cl)c(Cl)c2)C2c3cccn3C(=O)N2c2ccc(Cl)c(Cl)c2)cc1` (stereo not given), the GI50 with A498 is 27.7 µM (inactive); in the test with CCRF-CEM it was 36 µM (inactive); in the test on COLO 205, > 100 µM (inactive); in the test with HCC 2998 it was 56.5 µM (inactive); with MDA-MB-231 it was 47.8 µM (inactive); in the test on MDA-N, 87.7 µM (inactive). For the same compound, the GI50 in the test on Malme-3M was > 100 µM (inactive); in the test on NCI-H226, > 100 µM (inactive); in the test on NCI-H23 it was 92 µM (inactive); in the test on OVCAR-5, 16.4 µM (inactive); with SF-268, 8.43 µM (inactive); with SF-295, 18.3 µM (inactive). In addition, the GI50 in the test on SK-MEL-5 is 70.5 µM (inactive); in the test with SN12C it was > 100 µM (inactive); in the test with SNB-19, > 100 µM (inactive); with UACC-257, > 100 µM (inactive); in the test on UO-31 it was > 100 µM (inactive).
For the compound `CC(C)(C)[Si](C)(C)OCCC1CC2(S(=O)(=O)C3=CC=C=C=C3)ON1CC2S(=O)(=O)c1ccccc1` (stereo not given), the GI50 with A498 is > 10 µM (inactive); in the test on CCRF-CEM it was 2.56 µM (inactive); in the test with COLO 205, > 10 µM (inactive); in the test with HCC 2998, > 10 µM (inactive); in the test on MDA-MB-231, > 10 µM (inactive); in the test with MDA-N it was > 10 µM (inactive). Further, the GI50 with NCI-H226, in the test on NCI-H23, in the test with OVCAR-5, in the test with SF-268, in the test with SF-295 and in the test with SK-MEL-5 was > 10 µM (inactive) in each case. The GI50 in the test with SK-OV-3 was > 100 µM (inactive); in the test on SN12C, > 10 µM (inactive); with SNB-19, > 10 µM (inactive); with SNB-75 it was > 10 µM (inactive); with UACC-257, > 10 µM (inactive); in the test with UO-31 it was > 10 µM (inactive).
`O=c1[nH]c(=O)n(C2CC(O)C(COP(=O)(O)OC3CC(n4cc(F)c(=O)[nH]c4=O)OC3COP(=O)(O)OC3CC(n4cc(F)c(=O)[nH]c4=O)OC3COP(=O)(O)OC3CC(n4cc(F)c(=O)[nH]c4=O)OC3COP(=O)(O)OC3CC(n4cc(F)c(=O)[nH]c4=O)OC3COP(=O)(O)OC3CC(n4cc(F)c(=O)[nH]c4=O)OC3COP(=O)(O)OC3CC(n4cc(F)c(=O)[nH]c4=O)OC3COP(=O)(O)OC3CC(n4cc(F)c(=O)[nH]c4=O)OC3COP(=O)(O)OC3CC(n4cc(F)c(=O)[nH]c4=O)OC3COP(=O)(O)OC3CC(n4cc(F)c(=O)[nH]c4=O)OC3CO)O2)cc1F` (stereo not given): the GI50 with A498 was < 0.005 µM (active); in the test on COLO 205, 0.129 µM (active); with HCC 2998, 0.0234 µM (active); in the test with MDA-MB-231, 9.33 µM (inactive); in the test on MDA-N, 0.0685 µM (active); in the test on NCI-H226 it was 0.194 µM (active). Further, the GI50 with NCI-H23 is 0.0502 µM (active); in the test with SF-268 it was < 0.005 µM (active); in the test on SF-295 it was < 0.005 µM (active); with SK-MEL-5 it was 0.00824 µM (active); in the test with SK-OV-3, 0.226 µM (active); in the test with SN12C, 0.00828 µM (active). For the same compound, the GI50 in the test on SNB-19 was 0.169 µM (active); with SNB-75, 0.353 µM (active); in the test with UACC-257 it was 0.578 µM (active); with UO-31, < 0.005 µM (active).
In the case of `Clc1cc(-c2csc(Cl)c2)cs1`, the GI50 with A498, with CCRF-CEM, with COLO 205, with MDA-MB-231, with MDA-N and in the test with NCI-H226 was > 100 µM (inactive) throughout. In addition, the GI50 in the test on NCI-H23, in the test on OVCAR-5, in the test on SF-268, with SF-295, in the test on SK-MEL-5 and in the test on SN12C was > 100 µM (inactive) throughout. In addition, the GI50 with SNB-19, in the test on SNB-75, in the test with UACC-257 and in the test with UO-31 was > 100 µM (inactive) in each case.
For the compound `COc1cccc(Cc2cc(=O)c3ccc(C)nc3[nH]2)c1`, the GI50 with A498 was 73.5 µM (inactive); with CCRF-CEM, > 100 µM (inactive); in the test with COLO 205 it was > 100 µM (inactive); in the test on MDA-MB-231, > 100 µM (inactive); in the test on MDA-N, > 100 µM (inactive); in the test on Malme-3M, 57.7 µM (inactive). The GI50 in the test with NCI-H226, in the test with NCI-H23, with OVCAR-5, in the test with SF-268, in the test on SF-295 and in the test on SK-MEL-5 was > 100 µM (inactive) each time. The GI50 with SK-OV-3 is > 100 µM (inactive); in the test with SN12C, > 100 µM (inactive); in the test on SNB-19 it was > 100 µM (inactive); in the test on SNB-75, 93.8 µM (inactive); with UACC-257, > 100 µM (inactive); in the test on UO-31, > 100 µM (inactive).
On to `O=[N+]([O-])c1ccc2c3c1[C@H]1O[C@H]1c1cccc(c1-3)[C@@H]1O[C@H]21`, for which the GI50 in the test with A498 was 2.31 µM (inactive); in the test on CCRF-CEM it was 1.44 µM (inactive); in the test with COLO 205, 2.05 µM (inactive); in the test with MDA-MB-231, 2.01 µM (inactive); in the test on MDA-N, 2.17 µM (inactive); in the test with Malme-3M, 2.4 µM (inactive). Besides, the GI50 in the test on NCI-H226 was 45.9 µM (inactive); with NCI-H23 it was 1.81 µM (inactive); with OVCAR-5, 2.37 µM (inactive); in the test with SF-268, 1.98 µM (inactive); in the test on SF-295, 3.5 µM (inactive); in the test on SK-MEL-5, 3.02 µM (inactive). Besides, the GI50 in the test with SK-OV-3 was 4.22 µM (inactive); with SN12C it was 2.12 µM (inactive); in the test with SNB-19 it was 3.54 µM (inactive); with SNB-75, 1.97 µM (inactive); in the test with UACC-257, 1.82 µM (inactive); in the test on UO-31 it was 2 µM (inactive).
